Test results from patent US10752587B2, “Homobispiperidinyl derivatives as liver X receptor beta agonists, compositions and their use” (Merck Sharp & Dohme Corp., priority 2015, dated 2020).
Like-named read-outs stand apart in the source and are kept apart here.

Experiments:
[1] = biological target: T1, glutathione-S-transferase (GST) tagged LXRbeta LBD (ligand binding domain) (Homo sapiens, UniProt P55055); assay: LanthaScreen TR-FRET Liver X Receptor Coactivator Assay, co-activator recruitment to LXRbeta LBD; format: biochemical
T1 construct: purchased Invitrogen pv4658.pps
T1 sequence (P55055 222-460 limits assumed): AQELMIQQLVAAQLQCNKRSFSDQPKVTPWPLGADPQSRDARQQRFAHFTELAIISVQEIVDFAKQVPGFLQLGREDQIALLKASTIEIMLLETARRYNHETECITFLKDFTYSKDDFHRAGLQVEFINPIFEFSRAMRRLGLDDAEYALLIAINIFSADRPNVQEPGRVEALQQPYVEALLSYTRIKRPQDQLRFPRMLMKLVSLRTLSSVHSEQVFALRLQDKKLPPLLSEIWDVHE
Description: (§1) Potency (Inflection Point, IP) and efficacy (Emax) are evaluated via compound-induced co-activator recruitment to glutathione-S-transferase (GST) tagged LXRbeta and LXRalpha LBD (ligand binding domain) proteins in relation to reference dual agonist compound T0901317 (N-(2,2,2-Trifluoroethyl)-N-[4-[2,2,2-trifluoro-1-hydroxy-1-(trifluoromethyl)ethyl] phenyl] benzenesulfonamide) using the LanthaScreen™ TR-FRET Liver X Receptor Coactivator Assays according to manufacturer's instructions (Invitrogen catalog number pv4658.pps and pv4655). While running the LanthaScreen™ TR-FRET Liver X Receptor Coactivator Assay, LXR alpha-LBD or LXR beta-LBD was added to ligand test compounds followed by addition of a mixture of a fluorescein-labelled coactivator peptide and terbium-conjugated anti-GST antibody. After an incubation period at room temperature, TR-FRET (time-resolved fluorescence resonance energy transfer) was measured using a filter-based instrument capable of TR-FRET, e.g. PerkinElmer Envision.

[2] = biological target: T2, glutathione-S-transferase (GST) tagged LXRalpha LBD (ligand binding domain) (Homo sapiens, UniProt Q13133); assay: LanthaScreen TR-FRET Liver X Receptor Coactivator Assay, co-activator recruitment to LXRalpha LBD; format: biochemical
T2 construct: purchased Invitrogen pv4655
T2 sequence (Q13133 209-447 limits assumed): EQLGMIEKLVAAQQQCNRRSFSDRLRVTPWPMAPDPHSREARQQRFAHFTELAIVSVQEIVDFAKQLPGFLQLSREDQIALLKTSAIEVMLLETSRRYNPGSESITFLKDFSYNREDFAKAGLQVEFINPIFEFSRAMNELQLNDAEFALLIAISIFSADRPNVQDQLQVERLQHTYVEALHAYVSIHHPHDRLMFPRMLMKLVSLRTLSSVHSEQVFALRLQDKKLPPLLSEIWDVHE
Description: as §1

[3] = efficacy at max dose, in relation to reference dual agonist T0901317, read-out: LXR beta Activity @ max dose (%)
[4] = potency (Inflection Point, IP), co-activator recruitment to LXRbeta LBD, in relation to T0901317, read-out: LXR beta IP
[5] = efficacy at max dose, in relation to reference dual agonist T0901317, read-out: LXR alpha Activity @ max dose (%)
[6] = potency (Inflection Point, IP), co-activator recruitment to LXRalpha LBD, in relation to T0901317
[7] = potency (Inflection Point, IP), co-activator recruitment to LXRalpha LBD, in relation to T0901317, read-out: LXR alpha IP
[8] = co-activator recruitment to GST-LXRbeta LBD, TR-FRET, read-out: LXR beta IP (Inflection Point, potency)
[9] = efficacy in relation to reference dual agonist T0901317, read-out: LXR beta Activity @ max dose
[10] = efficacy in relation to reference dual agonist T0901317, read-out: LXR alpha Activity @ max dose

SMILES	Emax [1, 3] [%]	EC50 [1, 4] [µM]	Emax [2, 5] [%]	LXR alpha IP (nM) [2, 6]	EC50 [2, 7] [µM]	EC50 [1, 8] [µM]	Emax [1, 9] [%]	LXR alpha IP (Inflection Point, potency) ([2]; co-activator recruitment to GST-LXRalpha LBD, TR-FRET)	Emax [2, 10] [%]	EC50 ([2]; co-activator recruitment to GST-LXRalpha LBD, TR-FRET, read-out: LXR alpha IP (Inflection Point, potency)) [µM]
COc1cccc(C(O)(C(=O)N2CCC(CCC3CCN(c4ccc(C(=O)N(C)C)c(Cl)c4)CC3)CC2)C(F)(F)F)c1 (centres unmarked) [Example 2-163, 2-chloro-N,N-dimethyl-4-[4-(2-{1-[3,3,3-trifluoro-2-hydroxy-2-(3-methoxyphenyl)propanoyl]piperidin-4-yl}ethyl)piperidin-1-yl]benzamide]	39	0.728	0	NO IP	–	–	–	–	–	–
COc1cccc([C@@](N)(C(=O)N2CCC(CC3CCN(c4ccc(C(=O)N(C)C)c(Cl)c4)CC3)CC2)C(F)(F)F)c1 [Example 2-103, 4-[4-({1-[(2R)-2-amino-3,3,3-trifluoro-2-(3-methoxyphenyl)propanoyl]piperidin-4-yl}methyl)piperidin-1-yl]-2-chloro-N,N-dimethyl-benzamide]	16	0.181	0	NO IP	–	–	–	–	–	–
CN(C)C(=O)c1ccc(N2CCC(CC3CN(C(=O)[C@](O)(c4cc(Cl)cc(Cl)c4)C(F)(F)F)C3)CC2)cc1Cl [Example 2-67, 2-chloro-4-[4-({1-[(2R)-2-(3,5-dichloro-phenyl)-3,3,3-trifluoro-2-hydroxy-propanoyl]azetidin-3-yl}methyl)piperidin-1-yl]-N,N-dimethyl-benzamide]	77	0.019	9	NO IP	–	–	–	–	–	–
CN(C)C(=O)c1ccc(N2CCC(CC3(C)CCN(C(=O)[C@](O)(c4ccccc4)C(F)(F)F)CC3)CC2)cc1Cl [Example 2-44, 2-chloro-N,N-dimethyl-4-[4-({4-methyl-1-[(2R)-3,3,3-trifluoro-2-hydroxy-2-phenyl-propanoyl]piperidin-4-yl}methyl)piperidin-1-yl]benzamide]	37	0.001	20	–	0.032	–	–	–	–	–
CN(C)C(=O)c1ccc(N2CCC(CC3CCN(C(=O)[C@](O)(c4cccc(Cl)c4)C(F)(F)F)CC3)CC2)cc1Cl [Example 2-86, 2-chloro-4-[4-({1-[(2R)-2-(3-chloro-phenyl)-3,3,3-trifluoro-2-hydroxy-propanoyl]piperidin-4-yl}methyl)piperidin-1-yl]-N,N-dimethyl-benzamide]	68	0.006	22	–	0.098	–	–	–	–	–
CN(C)C(=O)c1ccc(N2CCC(CC3CCN(C(=O)[C@](O)(c4csc5ccccc45)C(F)(F)F)CC3)CC2)cc1Cl (stereo in doubt) [Example 2-169, 4-[4-({1-[2-(1-benzothiophen-3-yl)-3,3,3-trifluoro-2-hydroxy-propanoyl]piperidin-4-yl}methyl)piperidin-1-yl]-2-chloro-N,N-dimethyl-benzamide]	71	0.011	17	NO IP	–	–	–	–	–	–
CC(C)c1cccc([C@@](O)(C(=O)N2CCC(CC3CCN(c4ccc(C(=O)N(C)C)c(Cl)c4)CC3)CC2)C(F)(F)F)c1 [Example 2-95, 2-chloro-N,N-dimethyl-4-{4-[(1-{(2R)-3,3,3-trifluoro-2-hydroxy-2-[3-(1-methylethyl)phenyl]propanoyl}piperidin-4-yl)methyl]piperidin-1-yl}benzamide]	50	0.006	15	–	0.341	–	–	–	–	–

Next, values leading:

Emax [1, 3] [%]	EC50 [1, 4] [µM]	Emax [2, 5] [%]	LXR alpha IP (nM) [2, 6]	EC50 [2, 7] [µM]	EC50 [1, 8] [µM]	Emax [1, 9] [%]	LXR alpha IP (Inflection Point, potency) ([2]; co-activator recruitment to GST-LXRalpha LBD, TR-FRET)	Emax [2, 10] [%]	EC50 ([2]; co-activator recruitment to GST-LXRalpha LBD, TR-FRET, read-out: LXR alpha IP (Inflection Point, potency)) [µM]	SMILES
101	0.047	10	NO IP	–	–	–	–	–	–	COc1cc(Cl)cc([C@](O)(C(=O)N2CCC(CC3CCN(c4ccc(C(=O)N(C)C)c(Cl)n4)CC3)CC2)C(F)(F)F)c1 [Example 7-108, 2-chloro-6-[4-({1-[(2S)-2-(3-chloro-5-methoxyphenyl)-3,3,3-trifluoro-2-hydroxypropanoyl]piperidin-4-yl}methyl)piperidin-1-yl]-N,N-dimethylpyridine-3-carboxamide]
80	0.019	35	–	0.895	–	–	–	–	–	Cc1nc(N2CCC(CC3CCN(C(=O)[C@](O)(c4ccccc4)C(F)(F)F)CC3)CC2)ccc1C(=O)N(C)C [Example 7-1, (R)—N,N,2-trimethyl-6-(4-((1-(3,3,3-trifluoro-2-hydroxy-2-phenylpropanoyl)piperidin-4-yl)methyl)piperidin-1-yl)nicotinamide]
91	0.017	32	–	0.163	–	–	–	–	–	CNC(=O)c1ccc(N2CCC(CC3CCN(C(=O)[C@](O)(c4cccc(C(C)C)c4)C(F)(F)F)CC3)CC2)nc1Cl [Example 7-149, 2-chloro-N-methyl-6-{4-[(1-{(2R)-3,3,3-trifluoro-2-hydroxy-2-[3-(1-methylethyl)phenyl]propanoyl}piperidin-4-yl)methyl]piperidin-1-yl}pyridine-3-carboxamide]
–	–	–	–	–	0.604	26	NO IP	0	–	COc1cccc(CS(=O)(=O)N2CC(CC3CCN(c4ccc(C(=O)N(C)C)c(Cl)c4)CC3)C2)c1 [Example 13-3, 2-chloro-4-[4-({1-[(3-methoxybenzyl)-sulfonyl]azetidin-3-yl}methyl)piperidin-1-yl]-N,N-dimethyl-benzamide]
–	–	–	–	–	0.026	67	–	43	0.264	CN(C)C(=O)c1ccc(N2CCC(CC3CCN(S(=O)(=O)c4cccs4)CC3)CC2)cc1Cl [Example 13-4, 2-chloro-N,N-dimethyl-4-(4-{[1-(thiopen-2-ylsulfonyl)piperidin-4-yl]methyl}piperidin-1-yl)benzamide]
79	0.006	29	NO IP	–	–	–	–	–	–	COc1nc(N2CCC(CC3CCN(C(=O)[C@](O)(c4cc(Cl)cc(Cl)c4)C(F)(F)F)CC3)CC2)ccc1C(=O)N(C)C [Example 7-20, 6-[4-({1-[(2R)-2-(3,5-dichlorophenyl)-3,3,3-trifluoro-2-hydroxypropanoyl]piperidin-4-yl}methyl)piperidin-1-yl]-2-methoxy-N,N-dimethylpyridine-3-carboxamide]
34	0.192	4	NO IP	–	–	–	–	–	–	COc1cccc([C@@](O)(C(=O)N2CCC(CN3CCN(c4ccc(C(=O)N(C)C)c(Cl)c4)CC3)CC2)C(F)(F)F)c1 [Example 6-4, 2-chloro-N,N-dimethyl-4-[4-({1-[(2R)-3,3,3-trifluoro-2-hydroxy-2-(3-methoxyphenyl)propanoyl]piperidin-4-yl}methyl)piperazin-1-yl]benzamide]
63	0.014	10	NO IP	–	–	–	–	–	–	CN(C)C(=O)c1ccc(N2CCC(SC3CCN(C(=O)[C@](O)(c4cc(Cl)cc(Cl)c4)C(F)(F)F)CC3)CC2)nc1Cl [Example 9-3, 2-chloro-6-[4-({1-[(2R)-2-(3,5-dichlorophenyl)-3,3,3-trifluoro-2-hydroxypropanoyl]-piperidin-4-yl}-sulfanyl)piperidin-1-yl]-N,N-dimethyl-pyridine-3-carboxamide]
88	0.117	42	–	2.17	–	–	–	–	–	COCCN(C)C(=O)c1ccc(N2CCC(OC3CCN(C(=O)[C@](O)(c4ccccc4)C(F)(F)F)CC3)CC2)cc1Cl [Example 4-14, 2-chloro-N-(2-methoxyethyl)-N-methyl-4-[4-({1-[(2R)-3,3,3-trifluoro-2-hydroxy-2-phenylpropanoyl]piperidin-4-yl}oxy)piperidin-1-yl]benzamide]
45	1.27	0	NO IP	–	–	–	–	–	–	CCOc1cccc([C@@](O)(C(=O)N2CCC(CC3CN(c4ccc(C(=O)N(C)C)c(OC)n4)C3)CC2)C(F)(F)F)c1 [Example 7-22, 6-[3-({1-[(2R)-2-(3-ethoxyphenyl)-3,3,3-trifluoro-2-hydroxypropanoyl]piperidin-4-yl}methyl)azetidin-1-yl]-2-methoxy-N,N-dimethylpyridine-3-carboxamide]
